Experimental data as given in patent US20230399312A1, “SUBSTITUTED PYRIMIDINES AND METHODS OF USE” (THERAVANCE BIOPHARMA R&D IP, LLC, priority 2020, published 2023).

Legend:
[1] = target: T1, recombinant human ALK5 (TGF-βR1) protein (Homo sapiens, UniProt P36897); test: Biochemical ALK5 (TGF-βR1) assay to measure pKi (LANCE Ultra ULight kinase assay); settings: apparent pKi, converted from pIC50 by Cheng-Prusoff
T1 construct: purchased Life Technologies PR9075A
T1 sequence (P36897 34-503): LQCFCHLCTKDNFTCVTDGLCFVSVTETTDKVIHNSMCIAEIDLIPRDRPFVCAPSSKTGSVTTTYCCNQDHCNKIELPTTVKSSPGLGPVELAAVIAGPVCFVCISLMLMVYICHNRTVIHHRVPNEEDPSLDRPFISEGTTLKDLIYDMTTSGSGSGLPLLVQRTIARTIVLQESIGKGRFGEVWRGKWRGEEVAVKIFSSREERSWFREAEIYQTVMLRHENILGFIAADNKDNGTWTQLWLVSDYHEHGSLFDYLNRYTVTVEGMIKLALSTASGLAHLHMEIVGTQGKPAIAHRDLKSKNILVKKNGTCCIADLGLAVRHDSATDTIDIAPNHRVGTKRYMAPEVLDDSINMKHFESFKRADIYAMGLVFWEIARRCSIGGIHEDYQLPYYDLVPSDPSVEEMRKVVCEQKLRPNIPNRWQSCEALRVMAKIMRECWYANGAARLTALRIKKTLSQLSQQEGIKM
In short: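 Cmpd + enzyme, 60 min RT; ATP from 125 μM (5×) stock, 60 min 37 °C; stop 12 mM EDTA/Eu anti-pThr1342 Topo2α Ab (pH 7.0 buffer); TR-FRET 665 nm. DMSO = max, SD-208 = min signal. 4-PL pIC50 → pKi (Cheng-Prusoff).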

[2] = test system: TGF-β-stimulated SMAD3 phosphorylation in BEAS-2B cells; test: Cellular ALK5 potency assay, inhibition of TGF-β stimulated pSMAD3 formation in BEAS-2B cells; assay type: cell-based; settings: Homo sapiens, pSMAD3, TGF-β 10 ng/mL, read-out: BEAS2B pIC50 (converted)
In short: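 Potency is expressed as pIC50, based on dose-dependent reduction of TGF-β-induced pSMAD3 AlphaLISA signal relative to stimulated cells without compound. BEAS-2B cells received compound 1 h before a 30 min, 10 ng/mL TGF-β challenge.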

| SMILES | Ki [1] [nM] | IC50 [2] [nM] |
| --- | --- | --- |
| Cc1cccc(-c2nccc(Nc3ccnc(Nc4cncc(CN5CC(C(=O)OCC6CNC6)C5)c4)n3)n2)n1 [Compound 614, azetidin-3-ylmethyl 1-[[5-[[4-[[2-(6-methyl-2-pyridyl)pyrimidin-4-yl]amino]pyrimidin-2-yl]amino]-3-pyridyl]methyl]azetidine-3-carboxylate] | 0.0398 to 0.316 | 25.1 to 158 |
| Cc1cccc(-c2nccc(Nc3ccnc(Nc4nc(C(=O)OCC5CCNCC5)cs4)n3)n2)n1 [Compound 615, 4-piperidylmethyl 2-[[4-[[2-(6-methyl-2-pyridyl)pyrimidin-4-yl]amino]pyrimidin-2-yl]amino]thiazole-4-carboxylate] | 0.398 to 3.16 | 200 to 1260 |
| Cc1cccc(-c2nccc(Nc3ccnc(Nc4ccnc(C(=O)OCC5CNC5)c4)n3)n2)n1 [Compound 616, azetidin-3-ylmethyl 4-[[4-[[2-(6-methyl-2-pyridyl)pyrimidin-4-yl]amino]pyrimidin-2-yl]amino]pyridine-2-carboxylate] | 0.398 to 3.16 | 25.1 to 158 |
| Cc1cccc(-c2nccc(Nc3ccnc(Nc4ccc(C(=O)O[C@H]5CCCNC5)nc4)n3)n2)n1 [Compound 617, [(3S)-3-piperidyl] 5-[[4-[[2-(6-methyl-2-pyridyl)pyrimidin-4-yl]amino]pyrimidin-2-yl]amino]pyridine-2-carboxylate] | 0.0398 to 0.316 | 25.1 to 158 |
| Cc1cccc(-c2nccc(Nc3ccnc(Nc4cncc(C(=O)OC[C@H]5CCCN5)c4)n3)n2)n1 [Compound 618, [(2R)-pyrrolidin-2-yl]methyl 5-[[4-[[2-(6-methyl-2-pyridyl)pyrimidin-4-yl]amino]pyrimidin-2-yl]amino]pyridine-3-carboxylate] | 0.398 to 3.16 | 25.1 to 158 |
| Cc1cccc(-c2nccc(Nc3ccnc(Nc4csc(C(=O)OCCN5CCC[C@H](N)C5)c4)n3)n2)n1 [Compound 619, 2-[(3S)-3-amino-1-piperidyl]ethyl 4-[[4-[[2-(6-methyl-2-pyridyl)pyrimidin-4-yl]amino]pyrimidin-2-yl]amino]thiophene-2-carboxylate] | 0.0398 to 0.316 | 25.1 to 158 |
| Cc1cccc(-c2nccc(Nc3ccnc(Nc4ccc(C(=O)OC[C@H]5CCCNC5)nc4)n3)n2)n1 [Compound 620, [(3S)-3-piperidyl]methyl 5-[[4-[[2-(6-methyl-2-pyridyl)pyrimidin-4-yl]amino]pyrimidin-2-yl]amino]pyridine-2-carboxylate] | 0.0398 to 0.316 | 25.1 to 158 |
| Cc1cccc(-c2nccc(Nc3ccnc(Nc4csc(C(=O)OC[C@@H]5CCC[C@H](N)C5)c4)n3)n2)n1 [Compound 621, [(1R,3S)-3-aminocyclohexyl]methyl 4-[[4-[[2-(6-methyl-2-pyridyl)pyrimidin-4-yl]amino]pyrimidin-2-yl]amino]thiophene-2-carboxylate] | 0.0398 to 0.316 | 25.1 to 158 |
| Cc1cccc(-c2nccc(Nc3ccnc(Nc4ccc(C(=O)OC5CNC5)cn4)n3)n2)n1 [Compound 622, azetidin-3-yl 6-[[4-[[2-(6-methyl-2-pyridyl)pyrimidin-4-yl]amino]pyrimidin-2-yl]amino]pyridine-3-carboxylate] | 3.98 to 31.6 | 25.1 to 158 |
| Cc1cccc(-c2nccc(Nc3ccnc(Nc4ncc(C5=CCNCC5)s4)n3)n2)n1 [Compound 623, N4-[2-(6-methyl-2-pyridyl)pyrimidin-4-yl]-N2-[5-(1,2,3,6-tetrahydropyridin-4-yl)thiazol-2-yl]pyrimidine-2,4-diamine] | 0.398 to 3.16 | 25.1 to 158 |
| Cc1cccc(-c2nccc(Nc3ccnc(Nc4cc(C(=O)OCCN5CCNCC5)ccn4)n3)n2)n1 [Compound 624, 2-piperazin-1-ylethyl 2-[[4-[[2-(6-methyl-2-pyridyl)pyrimidin-4-yl]amino]pyrimidin-2-yl]amino]pyridine-4-carboxylate] | 3.98 to 31.6 | 200 to 1260 |
| Cc1cccc(-c2nccc(Nc3ccnc(Nc4ccc(C(=O)OC[C@@H]5CCCNC5)nc4)n3)n2)n1 [Compound 625, [(3R)-3-piperidyl]methyl 5-[[4-[[2-(6-methyl-2-pyridyl)pyrimidin-4-yl]amino]pyrimidin-2-yl]amino]pyridine-2-carboxylate] | 0.0398 to 0.316 | 25.1 to 158 |
| Cc1cccc(-c2nccc(Nc3ccnc(Nc4nc(C5=CCNC5)cs4)n3)n2)n1 [Compound 626, N2-[4-(2,5-dihydro-1H-pyrrol-3-yl)thiazol-2-yl]-N4-[2-(6-methyl-2-pyridyl)pyrimidin-4-yl]pyrimidine-2,4-diamine] | 0.0398 to 0.316 | 25.1 to 158 |
| Cc1cccc(-c2nccc(Nc3ccnc(Nc4csc(C(=O)OCCN5C[C@@H](C)N[C@@H](C)C5)c4)n3)n2)n1 [Compound 627, 2-[(3S,5R)-3,5-dimethylpiperazin-1-yl]ethyl 4-[[4-[[2-(6-methyl-2-pyridyl)pyrimidin-4-yl]amino]pyrimidin-2-yl]amino]thiophene-2-carboxylate] | 0.0398 to 0.316 | 25.1 to 158 |
| Cc1cccc(-c2nccc(Nc3ccnc(Nc4ccc(C(=O)OC[C@H]5CCCCN5)nc4)n3)n2)n1 [Compound 628, [(2R)-2-piperidyl]methyl 5-[[4-[[2-(6-methyl-2-pyridyl)pyrimidin-4-yl]amino]pyrimidin-2-yl]amino]pyridine-2-carboxylate] | 0.0398 to 0.316 | 25.1 to 158 |
| Cc1cccc(-c2nccc(Nc3ccnc(Nc4nc(CN5CC(C(=O)O)C5)cs4)n3)n2)n1 [Compound 629, 1-[[2-[[4-[[2-(6-methyl-2-pyridyl)pyrimidin-4-yl]amino]pyrimidin-2-yl]amino]thiazol-4-yl]methyl]azetidine-3-carboxylic acid] | 0.0398 to 0.316 | 1580 to 10000 |
| Cc1cccc(-c2nccc(Nc3ccnc(Nc4ncc(C(=O)OC[C@@H]5CCNC5)s4)n3)n2)n1 [Compound 630, [(3R)-pyrrolidin-3-yl]methyl 2-[[4-[[2-(6-methyl-2-pyridyl)pyrimidin-4-yl]amino]pyrimidin-2-yl]amino]thiazole-5-carboxylate] | 3.98 to 31.6 | 200 to 1260 |
| Cc1cccc(-c2nccc(Nc3ccnc(Nc4csc(C(=O)O[C@H]5C[C@@H](N)C5)c4)n3)n2)n1 [Compound 631, (3-aminocyclobutyl) 4-[[4-[[2-(6-methyl-2-pyridyl)pyrimidin-4-yl]amino]pyrimidin-2-yl]amino]thiophene-2-carboxylate] | 0.0398 to 0.316 | 25.1 to 158 |
| Cc1cccc(-c2nccc(Nc3ccnc(Nc4cc(C(=O)O[C@H]5CCNC5)ccn4)n3)n2)n1 [Compound 632, [(3S)-pyrrolidin-3-yl] 2-[[4-[[2-(6-methyl-2-pyridyl)pyrimidin-4-yl]amino]pyrimidin-2-yl]amino]pyridine-4-carboxylate] | 3.98 to 31.6 | 25.1 to 158 |
| Cc1cccc(-c2nccc(Nc3ccnc(Nc4cc(C(=O)OC5CCNCC5)ccn4)n3)n2)n1 [Compound 633, 4-piperidyl 2-[[4-[[2-(6-methyl-2-pyridyl)pyrimidin-4-yl]amino]pyrimidin-2-yl]amino]pyridine-4-carboxylate] | 3.98 to 31.6 | 200 to 1260 |
| Cc1cccc(-c2nccc(Nc3ccnc(Nc4ccc(C(=O)OC5CCNCC5)cn4)n3)n2)n1 [Compound 634, 4-piperidyl 6-[[4-[[2-(6-methyl-2-pyridyl)pyrimidin-4-yl]amino]pyrimidin-2-yl]amino]pyridine-3-carboxylate] | 3.98 to 31.6 | 25.1 to 158 |
| Cc1cccc(-c2nccc(Nc3ccnc(Nc4csc(C(=O)OC[C@@H]5CCC[C@@H](N)C5)c4)n3)n2)n1 [Compound 635, [(1R,3R)-3-aminocyclohexyl]methyl 4-[[4-[[2-(6-methyl-2-pyridyl)pyrimidin-4-yl]amino]pyrimidin-2-yl]amino]thiophene-2-carboxylate] | 0.0398 to 0.316 | 25.1 to 158 |
| Cc1cccc(-c2nccc(Nc3ccnc(Nc4cc(C(=O)O)ccn4)n3)n2)n1 [Compound 636, 2-[[4-[[2-(6-methyl-2-pyridyl)pyrimidin-4-yl]amino]pyrimidin-2-yl]amino]pyridine-4-carboxylic acid] | 3.98 to 31.6 | 1580 to 10000 |
| Cc1cccc(-c2nccc(Nc3ccnc(Nc4csc(C(=O)OC[C@@H]5CCCN5)c4)n3)n2)n1 [Compound 637, [(2S)-pyrrolidin-2-yl]methyl 4-[[4-[[2-(6-methyl-2-pyridyl)pyrimidin-4-yl]amino]pyrimidin-2-yl]amino]thiophene-2-carboxylate] | 0.0398 to 0.316 | 25.1 to 158 |
| Cc1cccc(-c2nccc(Nc3ccnc(Nc4csc(C(=O)O[C@H]5C[C@H](N)C5)c4)n3)n2)n1 [Compound 638, (3-aminocyclobutyl) 4-[[4-[[2-(6-methyl-2-pyridyl)pyrimidin-4-yl]amino]pyrimidin-2-yl]amino]thiophene-2-carboxylate] | 0.0398 to 0.316 | 25.1 to 158 |
